Assay [1] deals with human pluripotent stem cells. Description: HD-DoE #2: 13-factor model, differentiation toward anterior neuroectoderm, gene expression. Type of assay: cell-based. From the text: To further enhance the conditions for oligodendrocyte differentiation from pluripotency, we performed an additional HD-DoE experiment. We obtained additional gene regulatory models that were used for preparation of a differentiation protocol. The basis of this was a 13-factor HD-DoE experiment with focus on initiation of differentiation of cells toward anterior neuroectoderm. In this model, we focused on expression of FEZF2 and OTX2.
As shown in the results summarized in FIG. 4, the model was optimized for highest expression of OTX2 at 12755.9. According to the model of high expression of OTX2, seven effectors had positive contribution including MK2206, PD0325901, CHIR99021, LDN193189, Go6983, PD173074 and BLU9931 with highest factor contribution of 22.2 for MK2206 and lowest factor contribution of 1.7 for PD173074 and BLU9931.
As shown in the results summarized in FIG. 5, the model was optimized for highest expression of FEZF2 at 4466. When the model was optimized for maximum expression level of FEZF2, three effectors including LDN193189 with factor contribution of 19.5, PD0325901 with factor contribution of 14.6 and MK2206 with factor contribution of 12.3 were common with previous condition and three new effectors including purmorphamine-500 nM, XAV939 and SC79 were introduced.
As shown in the results summarized in FIG. 6, to fine-tune the recipe and find the optimum combination of factors for high expression of both OTX2 and FEZF2, dynamic profiling analysis was done. […] Therefore, these two factors were added to the optimized culture recipe.

The next assay relates to stage 2 early-OPCs. Briefly: HD-DoE 12-factor model for stage 3 (version 1) on stage 2 early-OPCs. Type of assay: cell-based, human. The following applies: for factor contribution: positive. As for the experimental part:
In another model, the effects of Activin A and TTNPB along with LDN193189, MHY1485, PDGF-AA, AICAR, FGF2, CHIR99021, DBZ, MK2206, Purmorphamine and T3+T4 were tested on gene profile of differentiating cells. When this model was optimized for maximum expression of SOX10 at 54.7, we observed Activin A again had positive regulatory impact on its expression, with factor contribution of 4.7. Other positive factors included MK2206, with the highest factor contribution at 16.2, MHY1485 at 11.49, CHIR99021 at 9.6, DBZ at 9.3, FGF2 at 3.6 and PDGF-AA, with factor contribution less than 3 (FIG. 20).
In this model, we also investigated the conditions of expression of another important OPC gene, CSPG4 (Goldman and Kuypers (2015) Development 142:3983-95: van Tilborg et al. (2018) Glia 66:221-238).
Dynamic profile analysis was used to better assess the impact of the factors on our selected genes and find the combination set that can optimize their expression (FIG. 22). According to this analysis, even though Activin A has a positive effect on SOX10, it decreases level of PDGFRa and OLIG1. […] Moreover, SOX10 is one of the main transcription factors of oligodendrocytes, along with OLIG2 and NKX2-2, that has shown the potential to commit the stem cells to oligodendrocytes in reprogramming efforts (Wang et al. (2014) Proc Natl Acad Sci USA 111:E2885-94; Garciá-León et al. (2018) Stem Cell Reports 10:655-672). […] One of the main challenges of differentiating cells to oligodendrocyte fate is controlling the mixed population and increasing the purity of the culture by committing more cells to oligodendrocyte over neuronal identity. Therefore, DBZ was excluded from the final recipe.
At this point, we investigated the expression profile of a larger group of genes defining oligodendrocyte progenitor population at a later stage, including ID2, CNP and BCAN (Perlman et al. (2020). Glia 68:1291-1303; Goldman and Kuypers (2015) Development 142:3983-95). In this model, these genes were expressed at 1900, 660 and 44, respectively.

The test system of the next assay is OPCs. Description: HD-DoE 12-factor model for stage 4 on OPCs, 6 days in culture. The assay is classed as cell-based, human. As for the experimental part: To engineer the recipe of stage 4 of differentiation, 48 or 96 different combinations of effectors generated using Design-of-Experiments compression through D-optimality were robotically prepared. The effector combinations were prepared in a basal media and were subsequently added to the cells, which were treated with the stage 1, stage 2 and stage 3 differentiation media as described in the earlier examples to generate OPCs. […] Solutions within the tested space could then be explored to address desirability. […] Benarroch (2009) Neurology 72:1779-1785; Shi et al. (2019) Exp Ther Med, 18:1258-1266).

Assay [2] concerns pre-OPCs. Briefly: HD-DoE 8-factor model for stage 2 (version 2) on pre-OPCs. The assay is classed as cell-based, human. The note with it: for factor contribution: positive. As for the experimental part:
To engineer the recipe of stage 2 of differentiation, cells were first cultured in the stage 1 media described in Example 1, then, 48 or 96 different combinations of effectors generated using Design-of-Experiments compression through D-optimality were robotically prepared. The effector combinations were prepared in a basal media and were subsequently added to the cells, which were then allowed to differentiate. Three days later RNA extraction was performed, and gene expression was obtained using quantitative PCR analysis. The data was normalized and modeled using partial least squares regression analysis to the effector design, resulting in the generation of gene-specific models, which after model tuning for maximal predictive power, provided explanation of the effectors ability to control the expression of individual genes, combinatorically, and individually. Solutions within the tested space could then be explored to address desirability.
At this point, due to short duration of culture (only six days in vitro) we decided to focus on maximal expression of OLIG2 and maintenance of high expression of NKX2-2, while initiating expression of SOX10, OLIG1 and PDGFRa, to guide the cells towards oligodendrocyte fate (Emery and Lu (2015). Cold Spring Harb Perspect Biol. 7:a020461; Perlman et al. (2020). Glia 68:1291-1303; Goldman and Kuypers (2015) Development 142:3983-95). In one 8-factor model, the individual and combinatorial impact of CHIR99021 (a WNT pathway agonist), AGN193109 (an RA pathway antagonist), FGF-2 (an FGFR agonist), Purmorphamine (an SHH pathway agonist), AICAR (an AMPK agonist), GW3965 (an LXR pathway agonist), GW590735 (a PPAR-a agonist) and AZD3147 (a mTOR antagonist) on further differentiation of cells were tested.

Assay [3] relates to cells cultured in stage 1 and stage 2 differentiation media. Briefly: HD-DoE 8-factor model for stage 3 (version 2). The assay is classed as cell-based, human. The following applies: positive. As for the experimental part: To further differentiate the cells to an oligodendrocyte progenitor identity, additional HD-DoE experiments were performed on the cells that were cultured in stage 1 and stage 2 differentiation media. After 3 days, gene expression of cells in different combinatorial conditions were investigated. At this time, we focused on maximal expression of signature oligodendrocyte progenitor genes such as SOX10, OLIG1 and PDGFRa (Goldman and Kuypers (2015) Development 142:3983-95: Marques et al. (2016) Science 352:1326-1329). In one 8-factor model, individual and combinatorial effects of TTNPB (an RA agonist), CHIR99021, FGF-2, IGF-1, AGN193109, Purmorphamine, MHY1485 (a mTOR pathway agonist) and SC79 (an AKT pathway agonist) were tested to guide the cells toward a SOX10/PDGFRa positive population. […] CHIR99021 was also positive, with a factor contribution of 8.1 (FIG. 33).
Other positive factors were IGF-1, with a factor contribution of 11.2, CHIR99021, with a factor contribution of 8.5 and TTNPB, with a factor contribution below 1 (FIG. 34).
To confirm the impact of TTNPB, FGF-2 and IGF-1 on a bigger scale, we investigated the expression profile of a larger group of genes defining late oligodendrocyte progenitor population, such as ID2, CSPG4, FYN, SOX8, PLP1 and BCAN (Perlman et al. (2020). Glia 68:1291-1303; Goldman and Kuypers (2015) Development 142:3983-95; van Tilborg et al. (2018) Glia 66:221-238) and neuronal genes such as NEUROD1, NEUROG1 and NEUROG2 in presence of IGF-1, FGF-2 or TTNPB.

The subject of assay [4] is pre-OPCs. Briefly: HD-DoE 12-factor model for stage 2 (version 1), 3 days on stage 1 pre-OPCs. The assay is classed as cell-based, human. The note with it: for factor contribution: optimized for maximum expression of OLIG2 at 1841.6. From the text: To engineer the recipe of stage 2 of differentiation, cells were first cultured in the stage 1 media described in Example 1 and then treated with combinations of 8 or 12 factors for 3 days and the gene expression of cells in each condition was modeled. At this point, due to short duration of culture (only six days in vitro), we decided to focus on maximal expression of OLIG2 and maintenance of high expression of NKX2-2, while initiating expression of SOX10, OLIG1 and PDGFRa, to guide the cells towards oligodendrocyte fate (Emery and Lu (2015). Cold Spring Harb Perspect Biol. 7:a020461; Perlman et al. (2020). Glia 68:1291-1303; Goldman and. Kuypers (2015) Development 142:3983-95).
In one 12-factor model, the individual and combinatorial impact of SUN 11602 an agonist for FGF signaling pathway, FGF2, Activin A an activator of one of the receptors of TGF-b superfamily, A 8301, an inhibitor of TGF-b pathway, CHIR99021 a WNT activator, AGN193109 a RA antagonist, MK2206 an AKT inhibitor, Purmorphamine an agonist of SHH signaling pathway, AZD3147 an antagonist of mTOR pathway, MHY1485 an agonist of mTOR pathway, SC79 an agonist of AKT pathway and G06983 an inhibitor of PKC pathway, were tested.
Dynamic profile analysis was used to assess the expression levels of other genes of interests, such as NKX2-2, OLIG1 and SOX10, while the model is maximized for OLIG2. Activin A and SUN 11602 were brought down to zero due to their very low factor contribution. We observed when the model is optimized, the expression level of NKX2-2 is at 3000, PDGFRa at 1000, OLIG1 at 80 and SOX10 at 15 (FIG. 12).

Setting [5] is: model optimized for highest expression of OTX2 at 12755.9, positive contribution.
Where [6] appears, read: optimized for maximum expression of SOX10 at 54.7.
Setting [7] is: dynamic profiling analysis, 13-factor model.
Where [8] appears, read: optimized for maximum expression of OLIG1 at 454.7.
Setting [9] is: optimized for maximum expression of OLIG2 at 3325.
[10] abbreviates: optimized for maximum expression of CSPG4 at 38.6.
[11] abbreviates: dynamic profile, model maximized for OLIG2.

“And” between values parts separate entries of the source, which are not always exact repeats. Identical values can stand only once.

Consider `C=CC(=O)Nc1cccc(C)c1Nc1ncc2cc(-c3c(Cl)c(OC)cc(OC)c3Cl)ccc2n1` [BLU9931], for which, in assay [1] (setting [5]), the factor contribution came out at 1.7.
For `C[C@H](NC(=O)Cc1cc(F)cc(F)c1)C(=O)N[C@@H]1C(=O)N(C)c2ccccc2-c2ccccc21` [DBZ], the “effect on neuronal genes” value in the assay on stage 2 early-OPCs (dynamic profile / factor effect plots) is “increases neuronal genes”. Also, the factor contribution in the assay with stage 2 early-OPCs (setting [6]) is reported as 9.3.
`Oc1nc(-c2ccc(C(F)(F)F)cc2)nc2c1CSCC2` [XAV939]: in assay [1] (setting [7]), the “effect on expression of FEZF2” value is “significant positive effects” and the “impact on expression level of OTX2” value is “no negative impact”.
With `NC(=O)c1ncn([C@@H]2O[C@H](CO)[C@@H](O)[C@H]2O)c1N` [AICAR], the “effect on late OPC genes ID2, CNP and BCAN” value in the assay on stage 2 early-OPCs (factor effect plots) was “positively regulates”. Further, in the assay on OPCs (optimized for PLP1 at 3600, negative impact), the factor contribution is 12 and 11.8.
Take `Cc1c[nH]c(-c2cnc(NCCNc3ccc(C#N)cn3)nc2-c2ccc(Cl)cc2Cl)n1` [CHIR99021]: the factor contribution was 9.6 in the assay with stage 2 early-OPCs (setting [6]); 22.8 in the assay with pre-OPCs [2] (setting [8]); 17.96 in the assay on pre-OPCs [2] (setting [9]); 8.1 in assay [3] (optimized for SOX10 at 41.04); 8.5 in assay [3] (optimized for maximum expression of PDGFRa at 853.4).
For `CCN(CC)CCCCNc1ncc2cc(-c3cc(OC)cc(OC)c3)c(NC(=O)NC(C)(C)C)nc2n1` [PD173074], the factor contribution in assay [1] (setting [5]) stood at 1.7.
Turning to PDGF-AA: PDGFR pathway agonist, the factor contribution in the assay on stage 2 early-OPCs (setting [10]) is reported as 2.9; with stage 2 early-OPCs (setting [6]), “less than 3”.
For the compound `NC1(c2ccc(-c3nc4ccn5c(=O)[nH]nc5c4cc3-c3ccccc3)cc2)CCC1` [MK2206], the factor contribution is reported as 12.3 in assay [1] (model optimized for highest expression of FEZF2 at 4466, positive); 22.2 in assay [1] (setting [5]); 5.3 in the assay with pre-OPCs [4] (positive regulatory effect); 5.2 in the assay on stage 2 early-OPCs (setting [10]); 16.2 with stage 2 early-OPCs (setting [6]).
For the compound `Cc1nc(-c2ccc(C(F)(F)F)cc2)sc1C(=O)NCc1ccc(OC(C)(C)C(=O)O)cc1` [GW590735], the “impact on SOX10 and NKX2-2 expression” value with pre-OPCs [2] (setting [11]) was “negative impact”. Also, the factor contribution in the assay with pre-OPCs [2] (setting [8]) was determined as 3.1; in the assay on pre-OPCs [2] (setting [9]) it was 5.4.
`C[C@H]1COCCN1c1cc(C2(S(=O)(=O)C3CC3)CC2)nc(-c2ccc(NC(=S)NCCO)cc2)n1` [AZD3147]: the factor contribution in the assay with pre-OPCs [4] (positive regulatory effect) was 5.2; in the assay on pre-OPCs [2] (setting [8]), 26.7 and 26.76; in the assay on pre-OPCs [2] (setting [9]), 30.2.
Turning to `C[C@H](NC(=O)Cc1cc(F)cc(F)c1)C(=O)N[C@@H]1C(=O)N(C)c2ccccc2-c2ccccc21` [GSI-XX], in the assay on OPCs (dynamic profile analysis), the “effect on expression of neuronal genes NeuroG1, NeuroG2 and NeuroD1” value is reported as “positively regulates”. The factor contribution in the assay on OPCs (optimized for CNP at 1790, positive) is given as 7.
Consider `COc1ccc2c(c1)c(C1=C(c3c[nH]c4ccccc34)C(=O)NC1=O)cn2CCCN(C)C` [Go6983], for which, in the assay on pre-OPCs [4] (setting [11]), the “effect on expression of SOX10” value is on record as “positively regulate” and the “impact on PDGFRA” value is listed as “significant negative impact”. For the same compound, in the assay with pre-OPCs [4] (negative impact), the factor contribution is 10.2 and 10.22.

For the origin of these results see patent publication US12729368B2, “Methods and compositions for generating oligodendrocyte progenitor cells” (Trailhead Biosystems Inc., priority 2022, dated 2026).
